Measurements reported in US20040010036A1, “N,N, -Substituted s-Aryl-Isothioureas, N,N,N, -Substituted s-Aryl-Isothioureas and combinatorial libraries thereof” (priority 2002, published 2004).

test system: Streptococcus pyogenes (ATCC# 97-03 14289); test: Anti-microbial screen (percent inhibition of growth, OD 570 nm); assay type: cell-based; conditions: Spy4H: Streptococcus pyogenes, read at 4 hours, OD 570 nm; Conc 0.1776 mg ml
Procedure, shortened: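 Frozen stock diluted into 2×THB, compounds in DMSO added at time zero. OD 570 nm read at 0 h to correct for insoluble or coloured compounds and again at 4 h. Percent growth inhibition calculated against blank-corrected solvent controls.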

In order of rising inhibition of growth at 177.6 µg/mL:
1. CCc1ccc(/N=C(\Sc2ccc(C)cc2C)N(Cc2cccc(O)c2)CC2CCCCC2)cc1 [Cmpd 1260]  57.3%
2. Cc1ccc(CN(Cc2cccc(O)c2)/C(=N\c2ccc(Cl)c(C(F)(F)F)c2)Sc2ccc(C)cc2C)cc1 [Cmpd 233]  60.5%
3. Cc1ccc(S/C(=N\Cc2ccc(F)cc2)N(CCc2ccc(Cl)cc2)Cc2cccc(O)c2)c(C)c1 [Cmpd 284]  64%
4. COc1cccc(CN(Cc2ccc(O)cc2)/C(=N/c2ccc(Cl)c(C(F)(F)F)c2)Sc2cccc(C)c2)c1 [Cmpd 1113]  64.3%
5. COc1cccc(S/C(=N\c2ccc(C)c(Cl)c2)N(CCc2ccc(F)cc2)Cc2cccc(O)c2)c1 [Cmpd 935]  66.3%
6. Cc1ccc(S/C(=N/c2ccc(F)c([N+](=O)[O-])c2)N(Cc2cccc(O)c2)CC2CCCCC2)c(C)c1 [Cmpd 1262]  67.2%
7. Cc1ccc(CN(Cc2cccc(O)c2)/C(=N/Cc2ccc(F)cc2)Sc2ccc(C)cc2C)cc1 [Cmpd 204]  69.1%
8. Cc1cccc(S/C(=N\c2cc(Cl)cc(Cl)c2)N(Cc2ccccc2)Cc2cccc(O)c2)c1 [Cmpd 1133]  70.1%
9. COc1cccc(S/C(=N\c2cc(Cl)cc(Cl)c2)N(Cc2ccc(O)cc2)Cc2ccc(Cl)c(Cl)c2)c1 [Cmpd 53]  70.2%
10. Cc1ccc(S/C(=N\c2cc(Cl)cc(Cl)c2)N(Cc2ccc(O)cc2)Cc2cccc(Cl)c2)cc1 [Cmpd 173]  70.7%
11. Cc1ccc(S/C(=N\c2ccc(C(F)(F)F)cc2)N(Cc2ccc(O)cc2)Cc2cccc(Cl)c2)cc1 [Cmpd 167]  71%
12. Cc1ccc(CN(Cc2cccc(O)c2)/C(=N/c2ccc(C(F)(F)F)cc2)Sc2ccc(C)cc2)cc1 [Cmpd 407]  71.7%
13. Cc1cccc(S/C(=N\Cc2ccc(F)cc2)N(CCc2ccc(Cl)cc2)Cc2ccc(O)cc2)c1 [Cmpd 1164]  72.2%
14. Cc1ccc(S/C(=N/c2ccc(C(F)(F)F)cc2)N(Cc2ccccc2)Cc2ccc(O)cc2)c(C)c1 [Cmpd 487]  82.8%
15. COCCN(Cc1ccc(O)cc1)/C(=N\c1ccc(F)c(F)c1)Sc1ccc(C)cc1 [Cmpd 676]  87.5%
16. Cc1ccc(S/C(=N\c2ccc(C(F)(F)F)cc2)N(CCc2ccc(Cl)cc2)Cc2cccc(O)c2)c(C)c1 [Cmpd 287]  97.7%

same assay, conditions: Streptococcus pyogenes; Assay Spy4H; Conc 0.1776 mg ml; plates read at 570 nm at 0 time and at 4 hours

In order of falling inhibition of growth at 177.6 µg/mL:
1. COc1cccc(S/C(=N\c2ccc(Cl)c([N+](=O)[O-])c2)N(CCc2ccc(Cl)cc2)Cc2ccc(O)cc2)c1 [Cmpd 383]  56.7%
2. Cc1ccc(CN(Cc2cccc(O)c2)/C(=N/Cc2ccc(F)cc2)Sc2cccc(C)c2)cc1 [Cmpd 444]  56.6%
3. Cc1ccc(S/C(=N/c2ccc(Cl)c(Cl)c2)N(Cc2ccc(O)cc2)CC(C)C)cc1 [Cmpd 248]  55%
4. COc1cccc(S/C(=N/c2ccc(Cl)c(C(F)(F)F)c2)N(CCc2ccc(F)cc2)Cc2cccc(O)c2)c1 [Cmpd 953]  54.2%
5. Cc1ccc(S/C(=N/c2ccc(Cl)c(C(F)(F)F)c2)N(Cc2cccc(O)c2)CC2CCCCC2)c(C)c1 [Cmpd 1273]  52.2%
6. Cc1cccc(S/C(=N/c2cc(Cl)cc(Cl)c2)N(Cc2cccc(O)c2)CC(C)C)c1 [Cmpd 533]  52%
7. Cc1ccc(CN(Cc2cccc(O)c2)/C(=N/Cc2cccc(C)c2)Sc2ccc(C)cc2C)cc1 [Cmpd 202]  51.9%
8. Cc1ccc(S/C(=N/Cc2ccccc2)N(Cc2ccc(O)cc2)CC(C)C)cc1 [Cmpd 241]  49.8%
